Consider 1 molecule from patent publication US10072304B2, “Nuclear localization of Src-family tyrosine kinases is required for growth factor-induced euchromatinization” (National University Corporation Chiba University, priority 2009, dated 2018).

The test system of the experiment is nuclear SFKs. The experiment is described as follows: In vitro tyrosine phosphorylation of purified nuclei (kinase activity of nuclear SFKs). It is filed as biochemical, monkey. As to conditions: purified COS-1 nuclei, 10 μM PP2, FIGS. 30 and 31. As for the experimental part: Nuclei were prepared as described previously. In brief, COS-1 and HeLa cells were swollen in hypotonic buffer (10 mM HEPES-KOH, pH 7.9, 1.5 mM MgCl2, 10 mM KCl, 0.5 mM DTT, and 1 mM Na3VO4) containing protease inhibitors (2 mM phenylmethylsulfonyl fluoride, 50 μg/mL aprotinin, 100 μM leupeptin, and 25 μM pepstatin A) at 4° C. for 20 min, followed by homogenization with 20 strokes in a tight-fitting 1-ml Dounce homogenizer. After cell suspension was centrifuged at 200×g for 5 min, cell pellets were resuspended in 0.25 M sucrose containing protease inhibitors, 10 mM MgCl2, and 1 mM Na3VO4. […]
Confocal and Nomarski differential-interference-contrast images were obtained using a Fluoview FV500 confocal laser scanning microscope with a 40×1.00 NA oil and a 100×1.35 NA oil immersion objective (Olympus, Tokyo) and an LSM 510 confocal laser scanning microscope with a 63×1.40 NA oil immersion objective (Zeiss), as described. […] Emission signals were detected between 505 and 525 nm for fluorescein, at more than 560 nm for rhodamine and more than 610 nm for PI [44]. […] Fluorescence intensity plots of anti-histone H3K4me3, anti-ATF-2 pT69/71 and anti-HP1α antibody and PI staining (see FIGS. 18B, 19B, and 20B, respectively) were generated using Fluoview version 4.3 software (Olympus, Tokyo). […]

On to `CC(C)(C)n1nc(-c2ccc(Cl)cc2)c2c(N)ncnc21` [PP2], for which the “ATP-induced increase in nuclear tyrosine phosphorylation in purified nuclei” value was “significantly inhibited”.
